# From patent US20250059231A1, “Protease inhibitors” (priority 2021, published 2025)
# Where a SMILES comes first, the peptide text is derived from it. [ ]: non-standard residue; d: D form. The star is where a group is joined. Palmitoyl = CCCCCCCCCCCCCCCC(=O)*; Myristoyl = CCCCCCCCCCCCCC(=O)*; Lauroyl = CCCCCCCCCCCC(=O)*; hLys = NCCCCC[C@H](N)C(=O)O; β3hK = NCCCC[C@H](N)CC(=O)O; N(Me)OMe = CON(C)*
# Molecular target: T1, DENV protease (Dengue virus type 2, UniProt P29990)
# T1 construct: The virus-encoded dengue protease comprises the amino-terminal 180 amino acids of NS3 (NS3pro) of the polyprotein
# Assay: biochemical
# Settings: read-out: inhibition of DENV
# Procedure: Dilutions were made starting from 10 mM stock solutions in DMSO and final concentrations were measured in triplicates. The inhibitors were preincubated for 15 min with DENV protease (100 nM) in the assay buffer (50 mM Tris-HCl pH 9.0, ethylene glycol (10% v/v), and 0.0016% Brij 58). The enzymatic reaction was initiated by the addition of the FRET substrate (final concentration 50 μM) to obtain a final assay volume of 100 μL per well. The enzymatic activity was monitored for 15 min and determined as a slope of relative fluorescence units per second (RFU/s) for each concentration. The mean of the triplicates were plotted against the corresponding concentration in CDDVault to determine the IC50-values. Analogous procedures were used to determine the inhibitory potency on WNV (Kühl et al., J. Med. Chem. 2020, 63 (15): 8179-8197) and ZIKA protease (Nitsche et al., ACS Med. Chem. Lett. 2019 Feb. 14; 10 (2): 168-174). For selectivity screening of active candidates, similar biochemical assays with human serine proteases trypsin (Weigel et al., J. Med. Chem. 2015, 58 (19), 7719-7733.) and/or thrombin (Nitsche et al., J. Med. Chem. 2013, 56 (21), 8389-8403) were used.
# T1 sequence (P29990 1398-1437): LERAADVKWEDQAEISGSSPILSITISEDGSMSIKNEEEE
# T1 sequence (P29990 1476-1653): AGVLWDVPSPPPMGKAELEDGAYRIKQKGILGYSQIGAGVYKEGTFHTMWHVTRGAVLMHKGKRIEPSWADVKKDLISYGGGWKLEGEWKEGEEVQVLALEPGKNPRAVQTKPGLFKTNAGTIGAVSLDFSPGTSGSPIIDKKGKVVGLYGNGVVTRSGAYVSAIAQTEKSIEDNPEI
smiles,measurement,value
CCCCCCCCCCCCCCCCNC(=O)[C@H](CCCCN)NC(=O)[C@H](C)NC(=O)[C@@H](N)CCCCN [compound 98],inhibition at 50 µM,≥ 25%
CCCCCCCCCCCCCCCC(=O)N[C@@H](CCCCN)C(=O)N[C@@H](CCCCN)C(N)=O [compound 110],inhibition at 50 µM,≥ 25%
CCCCCCCCCCCCCCCC(=O)N[C@@H](CCCCN)C(=O)N[C@@H](CCCNC(=N)N)C(N)=O [compound 111] (Palmitoyl-Lys-Arg-NH2),inhibition at 50 µM,≥ 25%
CCCCCCCCCCCCCCCC(=O)N[C@@H](CCCNC(=N)N)C(=O)N[C@@H](CCCNC(=N)N)C(N)=O [compound 112] (Palmitoyl-Arg-Arg-NH2),inhibition at 50 µM,≥ 25%
CCCCCCCCCCCCCCCC(=O)N[C@@H](CCCCN)CC(=O)N1CCC[C@H]1C(=O)N[C@@H](C)C(=O)N[C@H](CCCCN)C(N)=O [compound 119] (Palmitoyl-[β3hK]PA[dK]-NH2),inhibition at 50 µM,≥ 25%
CCCCCCCCCCCCCCCC(=O)N[C@@H](CCCCN)CCN1CCC[C@H]1CC(=O)N[C@@H](C)C(=O)N[C@@H](Cc1c[nH]c2ccccc12)C(N)=O [compound 120],inhibition at 50 µM,≥ 25%
CCCCCCCCCCCCCCCC(=O)N[C@@H](CCCCCN)C(=O)N1CCC[C@H]1C(=O)N[C@@H](CCCCN)C(N)=O [compound 121] (Palmitoyl-[hLys]-Pro-Lys-NH2),inhibition at 50 µM,≥ 25%
CCCCCCCCCCCCCCCC(=O)N[C@@H](CCCCN)C(=O)N1CCC[C@H]1C(=O)N[C@@H](C)C(=O)N[C@@H](CCCCN)C(=O)O [compound 126] (Palmitoyl-KPAK-OH),inhibition at 50 µM,≥ 25%
CCCCCCCCCCCCCCCC(=O)N[C@@H](CCCCN)C(=O)N1CCC[C@H]1C(=O)N[C@@H](C)C(=O)N[C@@H](CCCCN)C(=O)NS(=O)(=O)C1CC1 [compound 127],inhibition at 50 µM,≥ 25%
CCCCCCCCCCCCCCCC(=O)N[C@@H](CCCCN)C(=O)N1CCC[C@H]1C(=O)N[C@@H](C)C(=O)N[C@@H](CCCCN)C(=O)c1ccccc1 [compound 128],inhibition at 50 µM,≥ 25%
CCCCCCCCCCCCCCCC(=O)N[C@@H](CCCCN)C(=O)N1CCC[C@H]1C(=O)N[C@@H](C)C(=O)N[C@H](C(N)=O)c1ccc(OCc2ccccc2)cc1 [compound 130],inhibition at 50 µM,≥ 25%
CCCCCCCCCCCCCCCC(=O)N[C@@H](CCCCN)C(=O)N[C@@H](C)C(=O)N1CCC[C@H]1C(=O)N[C@@H](CCCCN)C(N)=O [compound 133] (Palmitoyl-KAPK-NH2),inhibition at 50 µM,≥ 25%
CCCCCCCCCCCCCCCC(=O)N[C@@H](CCCCN)C(=O)N[C@@H](C)C(=O)N[C@@H](C)C(=O)N[C@H](CCCCN)C(=O)O [compound 134] (Palmitoyl-KAA[dK]-OH),inhibition at 50 µM,≥ 25%
CCCCCCCCCCCCCCCC(=O)N[C@@H](CCCCN)C(=O)N[C@@H](C)C(=O)N[C@@H](C)C(=O)N[C@H](CCCCN)C(=O)NS(=O)(=O)C1CC1 [compound 135],inhibition at 50 µM,≥ 25%
CCCCCCCCCCCCCCCC(=O)N[C@@H](CCCCN)C(=O)N[C@@H](C)C(=O)N[C@@H](C)C(=O)N[C@@H](C(N)=O)c1ccc(OCc2ccccc2)cc1 [compound 138],inhibition at 50 µM,≥ 25%
CCCCCCCCCCCCCCCC(=O)N[C@@H](CCCCN)C(=O)N[C@@H](C)C(=O)N[C@@H](C)C(=O)N[C@H](C(N)=O)c1ccc(OCc2ccccc2)cc1 [compound 139],inhibition at 50 µM,≥ 25%
CCCCCCCCCCCCCCCC(=O)N[C@@H](CCCCN)C(=O)N[C@H](C)C(=O)N[C@@H](CCCCN)C(N)=O [compound 146] (Palmitoyl-Lys-[dA]-Lys-NH2),inhibition at 50 µM,≥ 25%
CCCCCCCCCCCCCCCC(=O)N[C@@H](CCCCN)C(=O)N[C@@H](C)C(=O)N[C@@H](C)C(=O)N[C@H](C)C(N)=O [compound 147] (Palmitoyl-KAA[dA]-NH2),inhibition at 50 µM,≥ 25%
CCCCCCCCCCCCCCCC(=O)N[C@@H](C)C(=O)N[C@@H](CCCCN)C(=O)N[C@@H](C)C(=O)N[C@H](C)C(N)=O [compound 148] (Palmitoyl-AKA[dA]-NH2),inhibition at 1 µM,≥ 20%
same,inhibition at 50 µM,≥ 25%
CCCCCCCCCCCCCCCC(=O)N[C@@H](C)C(=O)N[C@@H](C)C(=O)N[C@@H](CCCCN)C(=O)N[C@H](C)C(N)=O [compound 149] (Palmitoyl-AAK[dA]-NH2),inhibition at 50 µM,≥ 25%
CCCCCCCCCCCCCCCC(=O)N[C@@H](C)C(=O)N[C@@H](C)C(=O)N[C@@H](C)C(=O)N[C@H](CCCCN)C(N)=O [compound 150] (Palmitoyl-AAA[dK]-NH2),inhibition at 50 µM,≥ 25%
CCCCCCCCCCCCCC(=O)N[C@@H](CCCCN)C(=O)N[C@@H](C)C(=O)N[C@@H](C)C(=O)N[C@H](CCCCN)C(N)=O [compound 151] (Myristoyl-KAA[dK]-NH2),inhibition at 50 µM,≥ 25%
CCCCCCCCCCCC(=O)N[C@@H](C)C(=O)N[C@@H](CCCCN)C(=O)N[C@@H](C)C(=O)N[C@H](C)C(N)=O [compound 152] (Lauroyl-AKA[dA]-NH2),inhibition at 50 µM,≥ 25%
CCCCCCCCCCCCCCCC(=O)N[C@@H](CCCCN)C(=O)N[C@H](C)C(=O)N[C@@H](C)C(=O)N[C@@H](CCCCN)C(N)=O [compound 158] (Palmitoyl-K[dA]AK-NH2),inhibition at 50 µM,≥ 25%
CCCCCCCCCCCCCCCC(=O)N[C@H](CCCCN)C(=O)N[C@@H](C)C(=O)N[C@@H](CCCCN)C(N)=O [compound 159] (Palmitoyl-[dK]-Ala-Lys-NH2),inhibition at 50 µM,≥ 25%
CCCCCCCCCCCCCCCC(=O)N[C@@H](CCCCN)C(=O)N[C@@H](C)C(=O)N[C@H](CCCCN)C(N)=O [compound 160] (Palmitoyl-Lys-Ala-[dK]-NH2),inhibition at 50 µM,≥ 25%
CCCCCCCCCCCCCCCC(=O)N[C@@H](CCCNC(=N)N)C(=O)N[C@@H](CCCCN)C(N)=O [compound 161] (Palmitoyl-Arg-Lys-NH2),inhibition at 50 µM,≥ 25%
CCCCCCCCCCCCCCCC(=O)N[C@@H](CCCCN)C(=O)N[C@@H](Cc1c[nH]cn1)C(N)=O [compound 162],inhibition at 50 µM,≥ 25%
CCCCCCCCCCCCCCCC(=O)N[C@@H](CCCCN)C(=O)N1CCC[C@H]1C(=O)N[C@@H](C)C(=O)N[C@@H](Cc1c[nH]cn1)C(N)=O [compound 163] (Palmitoyl-KPAH-NH2),inhibition at 50 µM,≥ 25%
CCCCCCCCCCCCCCCC(=O)N[C@@H](CCCCN)C(=O)N1CCC[C@H]1C(=O)N[C@@H](C)C(=O)N[C@H](Cc1c[nH]cn1)C(N)=O [compound 164] (Palmitoyl-KPA[dH]-NH2),inhibition at 50 µM,≥ 25%
CCCCCCCCCCCCCCCC(=O)N[C@@H](CCCCN)C(=O)N1CCC[C@H]1C(=O)N[C@@H](C)C(=O)N[C@@H](CCc1c[nH]cn1)C(N)=O [compound 165],inhibition at 50 µM,≥ 25%
CCCCCCCCCCCCCCCC(=O)N[C@@H](CCCCN)C(=O)N[C@@H](C)C(=O)N[C@@H](Cc1cnc[nH]1)C(N)=O [compound 166] (Palmitoyl-Lys-Ala-His-NH2),inhibition at 50 µM,≥ 25%
CCCCCCCCCCCCCCCC(=O)N[C@@H](CCCCN)C(=O)N[C@@H](C)C(=O)N[C@@H](C)C(=O)N[C@@H](CCc1c[nH]cn1)C(N)=O [compound 172],inhibition at 1 µM,≥ 20%
same,inhibition at 50 µM,≥ 25%
CCCCCCCCCCCCCCCC(=O)N[C@@H](CCCCN)C(=O)N[C@@H](C)C(=O)N[C@@H](C)C(=O)N[C@H](CCc1c[nH]cn1)C(N)=O [compound 173],inhibition at 1 µM,≥ 20%
same,inhibition at 50 µM,≥ 25%
CCCCCCCCCCCCCCCC(=O)N[C@@H](CCCCN)C(=O)N[C@@H](C)C(=O)N[C@@H](C)C(=O)N[C@@H](CCCCN)C(=O)N(C)OC [compound 177] (Palmitoyl-KAAK-{N(Me)OMe}),inhibition at 50 µM,≥ 25%
CCCCCCCCCCCCCCCC(=O)N[C@@H](CCCCN)C(=O)N[C@@H](C)C(=O)N[C@@H](CCCCN)C(=O)NS(=O)(=O)C1CC1 [compound 178],inhibition at 50 µM,≥ 25%
CCCCCCCCCCCCCCCC(=O)N[C@@H](CCCCN)C(=O)N[C@@H](C)C(=O)N[C@H](CCCCN)C(=O)NS(=O)(=O)C1CC1 [compound 179],inhibition at 50 µM,≥ 25%
CCCCCCCCCCCCCCCC(=O)N[C@@H](CCCCN)C(=O)N[C@@H](C)C(=O)N[C@@H](C)C(=O)N[C@@H](CCCCN)C(=O)N(C)C [compound 187] (Palmitoyl-KAAK-NMe2),inhibition at 50 µM,≥ 25%
CCCCCCCCCCCCCCCC(=O)N[C@@H](CCCCN)C(=O)N[C@@H](C)C(=O)N[C@@H](CCCCN)C(=O)O [compound 188] (Palmitoyl-Lys-Ala-Lys-OH),inhibition at 50 µM,≥ 25%
